According to ChEMBL document CHEMBL3351419, “Orally bioavailable 6-chloro-7-methoxy-4(1H)-quinolones efficacious against multiple stages of Plasmodium” (J Med Chem, 2014):
In brackets after ≈: the same amount, converted by molar mass.

How the values were obtained:
[1] = Resistance index, ratio of EC50 for multi-drug-resistant Plasmodium falciparum TM90-C2B infected in human type A+ erythrocytes to EC50 for multi-drug-resistant Plasmodium falciparum W2 infected in human type A+ erythrocytes; type: functional
Plasmodium falciparum [2] = test: Antimalarial activity against multi-drug-resistant Plasmodium falciparum TM90-C2B infected in human type A+ erythrocytes assessed as growth inhibition after 72 hrs by SYBR Green I assay; type: functional, organism-based
Plasmodium berghei [3] = test: Antimalarial activity against Plasmodium berghei ANKA expressing GFP infected in Balb/c mouse assessed as mouse survival at 50 mg/kg, po qd administered as single dose on day 3 to 5 of exposure measured on day 6 post exposure by in vivo thomson test relative to control; type: functional
[4] = octanol/water, pH 7.4
Plasmodium berghei [5] = test: Antimalarial activity against Plasmodium berghei ANKA expressing GFP infected in Balb/c mouse assessed as mouse survival at 10 mg/kg, po qd administered as single dose on day 3 to 5 of exposure measured on day 6 post exposure by in vivo thomson test relative to control; type: functional
Plasmodium berghei [6] = test: Antimalarial activity against Plasmodium berghei ANKA expressing GFP infected in Balb/c mouse assessed as inhibition of parasitemia at 10 mg/kg, po qd administered as single dose on day 3 to 5 of exposure measured on day 6 post exposure by in vivo thomson test relative to control; type: functional
Plasmodium berghei [7] = test: Antimalarial activity against Plasmodium berghei ANKA expressing GFP infected in Balb/c mouse assessed as mouse survival at 3 mg/kg, po qd administered as single dose on day 3 to 5 of exposure measured on day 6 post exposure by in vivo thomson test relative to control; type: functional
Liver microsome [8] = test: Half life in human liver microsomes at 1 uM by LC-MS analysis; type: ADME
Plasmodium falciparum [9] = test: Antimalarial activity against multi-drug-resistant Plasmodium falciparum W2 infected in human type A+ erythrocytes assessed as growth inhibition after 72 hrs by SYBR Green I assay; type: functional, organism-based; details: W2, 72 h
Plasmodium berghei [10] = test: Antimalarial activity against Plasmodium berghei ANKA expressing GFP infected in Balb/c mouse assessed as inhibition of parasitemia at 3 mg/kg, po qd administered as single dose on day 3 to 5 of exposure measured on day 6 post exposure by in vivo thomson test relative to control; type: functional
[11] = Cytotoxicity index, ratio of EC50 for mouse J774 cells to EC50 for multi-drug-resistant Plasmodium falciparum TM90-C2B infected in human type A+ erythrocytes; type: toxicity, cell-based; details: read-out: Ratio EC50
J774 = test: Cytotoxicity against mouse J774 cells after 72 hrs by CellTiter 96 assay; type: cell-based; details: J774, 72 h
Plasmodium berghei [12] = test: Antimalarial activity against Plasmodium berghei ANKA expressing GFP infected in Balb/c mouse assessed as mouse cured from disease at 50 mg/kg, po qd administered as single dose on day 3 to 5 of exposure measured on day 30 post exposure by in vivo thomson test relative to control; type: functional
Plasmodium berghei [13] = test: Antimalarial activity against Plasmodium berghei ANKA expressing GFP infected in Balb/c mouse assessed as mouse cured from disease at 3 mg/kg, po qd administered as single dose on day 3 to 5 of exposure measured on day 30 post exposure by in vivo thomson test relative to control; type: functional
[14] = Aqueous solubility of the compound at pH 7.4; type: physicochemical; details: buffer
Plasmodium berghei [15] = test: Antimalarial activity against Plasmodium berghei ANKA expressing GFP infected in Balb/c mouse assessed as mouse cured from disease at 10 mg/kg, po qd administered as single dose on day 3 to 5 of exposure measured on day 30 post exposure by in vivo thomson test relative to control; type: functional
Plasmodium berghei [16] = test: Antimalarial activity against Plasmodium berghei ANKA expressing GFP infected in Balb/c mouse assessed as inhibition of parasitemia at 50 mg/kg, po qd administered as single dose on day 3 to 5 of exposure measured on day 6 post exposure by in vivo thomson test relative to control; type: functional
Plasmodium berghei [17] = test: Antimalarial activity against Plasmodium berghei ANKA expressing GFP infected in Balb/c mouse assessed as inhibition of parasitemia at 1 mg/kg, po qd administered as single dose on day 3 to 5 of exposure measured on day 6 post exposure by in vivo thomson test relative to control; type: functional
Plasmodium berghei [18] = test: Antimalarial activity against Plasmodium berghei ANKA expressing GFP infected in Balb/c mouse assessed as mouse survival at 1 mg/kg, po qd administered as single dose on day 3 to 5 of exposure measured on day 6 post exposure by in vivo thomson test relative to control; type: functional
Plasmodium berghei [19] = test: Antimalarial activity against Plasmodium berghei ANKA expressing GFP infected in Balb/c mouse assessed as inhibition of parasitemia at 0.3 mg/kg, po qd administered as single dose on day 3 to 5 of exposure measured on day 6 post exposure by in vivo thomson test relative to control; type: functional
Plasmodium berghei [20] = test: Antimalarial activity against Plasmodium berghei ANKA expressing GFP infected in Balb/c mouse assessed as mouse survival at 0.3 mg/kg, po qd administered as single dose on day 3 to 5 of exposure measured on day 6 post exposure by in vivo thomson test relative to control; type: functional
Liver microsome [21] = test: Intrinsic clearance in human liver microsomes at 1 uM by LC-MS analysis; type: ADME; details: microsomes, 1 µM
Plasmodium berghei [22] = test: animal or person; details: ANKA, in Mus musculus, read-out: INH
Plasmodium berghei [23] = test: animal or person; details: ANKA, in Mus musculus, read-out: INH; remark: listed apart in the source
in vitro = details: pampa, pH 7.4
Description: Effective permeability of the compound at pH 7.4 by PAMPA

Structure (SMILES): COc1cc2[nH]c(C)c(-c3ccc(C(F)(F)F)cc3C)c(=O)c2cc1Cl
- Ratio EC50 [1]: 0.29
- EC50 (Plasmodium falciparum [2]): 0.578 nM
- mouse survival time at 50 mg/kg (Plasmodium berghei [3]): 0 days
- logD [4]: 2.7
- survival time at 10 mg/kg (Plasmodium berghei [5]): 6 days
- inhibition in vivo at 10 mg/kg (Plasmodium berghei [6]): 80%
- survival time at 3 mg/kg (Plasmodium berghei [7]): 23 days
- t1/2 (Liver microsome [8]): 3.93 h
- EC50 (Plasmodium falciparum [9]): 2.02 nM
- inhibition in vivo at 3 mg/kg (Plasmodium berghei [10]): 84%
- selectivity ratio [11]: > 45300
- EC50 (J774): > 26200 nM
- Activity (Plasmodium berghei [12]): 0%
- Activity (Plasmodium berghei [13]): 100%
- solubility kinetic [14]: < 2 µM
- Activity (Plasmodium berghei [15]): 0%

Structure (SMILES): COc1cc2[nH]c(C)c(-c3ccc(F)cc3)c(=O)c2cc1Cl
- Ratio EC50 [1]: 1.72
- EC50 (Plasmodium falciparum [2]): 35.8 nM
- mouse survival time at 50 mg/kg (Plasmodium berghei [3]): 1 days
- survival time at 10 mg/kg (Plasmodium berghei [5]): 1 days
- inhibition in vivo at 10 mg/kg (Plasmodium berghei [6]): 63%
- inhibition in vivo at 50 mg/kg (Plasmodium berghei [16]): 30%
- EC50 (Plasmodium falciparum [9]): 20.8 nM
- selectivity ratio [11]: > 879
- EC50 (J774): > 31500 nM
- Activity (Plasmodium berghei [12]): 0%
- Activity (Plasmodium berghei [15]): 0%

Structure (SMILES): O=C1C(O)=C([C@H]2CC[C@H](c3ccc(Cl)cc3)CC2)C(=O)c2ccccc21 [ATOVAQUONE]
- EC50 (Plasmodium falciparum [2]): 18400 nM
- Activity (Plasmodium berghei [12]): 0%

Structure (SMILES): COc1cc2[nH]c(C)c(-c3ccc(-c4ccc(OC(F)(F)F)cc4)nc3)c(=O)c2cc1Cl
- Ratio EC50 [1]: 2.95
- EC50 (Plasmodium falciparum [2]): 2.03 nM
- logD [4]: 3.7
- survival time at 10 mg/kg (Plasmodium berghei [5]): 23 days
- inhibition in vivo at 10 mg/kg (Plasmodium berghei [6]): 97.3%
- survival time at 3 mg/kg (Plasmodium berghei [7]): 23 days
- inhibition in vivo at 1 mg/kg (Plasmodium berghei [17]): 95.8%
- survival at 1 mg/kg (Plasmodium berghei [18]): 23 days
- EC50 (Plasmodium falciparum [9]): 0.686 nM
- inhibition in vivo at 3 mg/kg (Plasmodium berghei [10]): 97.3%
- selectivity ratio [11]: > 10700
- inhibition in vivo at 0.3 mg/kg (Plasmodium berghei [19]): 93.9%
- survival at 0.3 mg/kg (Plasmodium berghei [20]): 23 days
- EC50 (J774): > 21700 nM
- Activity (Plasmodium berghei [13]): 80%
- solubility kinetic [14]: 6 to 12 µM (≈ 2.77 to 5.53 µg/mL)
- Activity (Plasmodium berghei [15]): 100%

Structure (SMILES): COc1cc2[nH]c(C)c(-c3ccccc3)c(=O)c2cc1Cl
- Ratio EC50 [1]: 0.59
- CLint_mic (Liver microsome [21]): 17 µL/min/mg
- mouse survival time at 50 mg/kg (Plasmodium berghei [3]): 0 days
- inhibition in vivo at 50 mg/kg (Plasmodium berghei [16]): < 1%
- selectivity ratio [11]: > 2170
- EC50 (J774): > 33400 nM

Structure (SMILES): COc1cc2[nH]c(C)c(-c3ccc(F)cc3C)c(=O)c2cc1Cl
- Ratio EC50 [1]: 1.07
- EC50 (Plasmodium falciparum [2]): 8.07 nM
- logD [4]: 2.7
- t1/2 (Liver microsome [8]): 1.93 h
- EC50 (Plasmodium falciparum [9]): 7.52 nM
- selectivity ratio [11]: 1690
- EC50 (J774): 13600 nM
- solubility kinetic [14]: < 2 µM

Structure (SMILES): COc1cc2[nH]c(C)c(-c3ccc(OC(F)(F)F)cc3)c(=O)c2cc1Cl
- Ratio EC50 [1]: 1.01
- EC50 (Plasmodium falciparum [2]): 7.76 nM
- EC50 (Plasmodium falciparum [9]): 7.72 nM
- inhibition in vivo at 50 mg/kg (Plasmodium berghei [22]): 60%
- inhibition in vivo at 50 mg/kg (Plasmodium berghei [23]): 28.8%
- selectivity ratio [11]: > 3360
- EC50 (J774): > 26100 nM

Structure (SMILES): COc1cc2[nH]c(C)c(-c3ccc(Cl)cc3C)c(=O)c2cc1Cl
- mouse survival time at 50 mg/kg (Plasmodium berghei [3]): 5 days
- logD [4]: 2.9
- survival time at 10 mg/kg (Plasmodium berghei [5]): 5 days
- inhibition in vivo at 10 mg/kg (Plasmodium berghei [6]): 95%
- inhibition in vivo at 50 mg/kg (Plasmodium berghei [16]): 71%
- EC50 (Plasmodium falciparum [9]): 14.2 nM
- Papp (in vitro): 369 ×10⁻⁶ cm/s
- EC50 (J774): > 28700 nM
- Activity (Plasmodium berghei [12]): 0%
- solubility kinetic [14]: < 2 µM
- Activity (Plasmodium berghei [15]): 0%

Structure (SMILES): COc1cc2[nH]c(C)c(-c3ccc(N4CCN(C)CC4)nc3)c(=O)c2cc1Cl
- Ratio EC50 [1]: 0.34
- EC50 (Plasmodium falciparum [2]): 536 nM
- EC50 (Plasmodium falciparum [9]): 1580 nM
- inhibition in vivo at 50 mg/kg (Plasmodium berghei [22]): 0%
- inhibition in vivo at 50 mg/kg (Plasmodium berghei [23]): 0%
- selectivity ratio [11]: > 46.8
- EC50 (J774): > 25100 nM

Structure (SMILES): COc1cc2[nH]c(C)c(-c3ccc(-c4ccccc4)cc3)c(=O)c2cc1Cl
- Ratio EC50 [1]: 2.43
- EC50 (Plasmodium falciparum [2]): 4.33 nM
- mouse survival time at 50 mg/kg (Plasmodium berghei [3]): 0 days
- survival time at 10 mg/kg (Plasmodium berghei [5]): 0 days
- inhibition in vivo at 10 mg/kg (Plasmodium berghei [6]): 80%
- inhibition in vivo at 50 mg/kg (Plasmodium berghei [16]): 79%
- EC50 (Plasmodium falciparum [9]): 1.78 nM
- inhibition in vivo at 50 mg/kg (Plasmodium berghei [22]): 85.7%
- inhibition in vivo at 50 mg/kg (Plasmodium berghei [23]): 61%
- selectivity ratio [11]: > 6140
- EC50 (J774): > 26600 nM
